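Compound exposure: 48 hours, 5 concentrations, 96-well plates. TGI: concentration producing complete growth inhibition.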
Tests used:
Experiment in all cases: growth of human tumour cells (NCI), 48 h
[1] = system: HS 578T breast
[2] = system: MOLT-4 leukemia
[3] = system: A549 NSCLC
[4] = system: NCI-H460 lung
[5] = system: COLO 205 colon
[6] = system: UO-31 renal
[7] = system: K-562 leukemia
[8] = system: MDA-N
[9] = system: ACHN renal
[10] = system: SW-620 colon
[11] = system: NCI-H522 lung
[12] = system: HOP-62 NSCLC
[13] = system: T-47D breast
[14] = system: HT29 colon
[15] = system: RXF 393 renal
[16] = system: CAKI-1 renal
[17] = system: OVCAR-3 ovarian
[18] = system: SF-295 CNS
[19] = system: 786-0 renal
[20] = system: MDA-MB-231 breast
[21] = system: RPMI-8226 leukemia
[22] = system: SF-268 CNS
[23] = system: TK-10 renal
[24] = system: KM12 colon
[25] = system: M14 melanoma
[26] = system: NCI/ADR-RES ovarian
[27] = system: HL-60(TB) leukemia
[28] = system: SK-MEL-5 melanoma
[29] = system: U251 CNS
[30] = system: LOX IMVI melanoma
[31] = system: OVCAR-8 ovarian
[32] = system: DU-145 prostate
[33] = system: EKVX NSCLC
[34] = system: IGROV1 ovarian
[35] = system: SK-MEL-2 melanoma
[36] = system: NCI-H226 lung
[37] = system: OVCAR-5 ovarian
[38] = system: HCT-116 colon
[39] = system: CCRF-CEM leukemia
[40] = system: MDA-MB-435
[41] = system: SK-OV-3 ovarian
[42] = system: SNB-19 CNS
[43] = system: MCF7 breast
[44] = system: UACC-257 melanoma
[45] = system: HCT-15 colon
[46] = system: SK-MEL-28 melanoma
[47] = system: SN12C renal
[48] = system: SNB-75 CNS
[49] = system: PC-3 prostate
[50] = system: SF-539 CNS
[51] = system: HOP-92 NSCLC
[52] = system: NCI-H23 lung
[53] = system: MALME-3M melanoma
[54] = system: SR leukemia
[55] = system: OVCAR-4 ovarian
[56] = system: HCC-2998 colon
[57] = system: BT-549 breast
[58] = system: UACC-62 melanoma
[59] = system: A498 renal

Compound: CC1(C)CC(=O)c2c(nc3c(ccc4ccccc43)c2-c2ccc(NC(=O)CCCCC(=O)Nc3ccc(-c4c5c(nc6c4ccc4ccccc46)CC(C)(C)CC5=O)cc3)cc2)C1
- TGI [1]: > 100 µM
- TGI [2]: 55.9 µM
- TGI [3]: > 100 µM
- TGI [4]: 91.8 µM
- TGI [5]: 65.1 µM
- TGI [6]: 74.1 µM
- TGI [7]: > 100 µM
- TGI [8]: 68.3 µM
- TGI [9]: 69.1 µM
- TGI [10]: > 100 µM
- TGI [11]: > 100 µM
- TGI [12]: > 100 µM
- TGI [13]: > 100 µM
- TGI [14]: 62.3 µM
- TGI [15]: > 100 µM
- TGI [16]: > 100 µM
- TGI [17]: 80.8 µM
- TGI [18]: 41.6 µM
- TGI [19]: > 100 µM
- TGI [20]: 64.6 µM
- TGI [21]: 71.4 µM
- TGI [22]: > 100 µM
- TGI [23]: > 100 µM
- TGI [24]: 42.2 µM
- TGI [25]: > 100 µM
- TGI [26]: 77.6 µM
- TGI [27]: 77.6 µM
- TGI [28]: > 100 µM
- TGI [29]: > 100 µM
- TGI [30]: 33.3 µM
- TGI [31]: 98.4 µM
- TGI [32]: > 100 µM
- TGI [33]: 67.5 µM
- TGI [34]: 37.5 µM
- TGI [35]: 92.6 µM
- TGI [36]: 54.9 µM
- TGI [37]: > 100 µM
- TGI [38]: 74.6 µM
- TGI [39]: 78.3 µM
- TGI [40]: > 100 µM
- TGI [41]: > 100 µM
- TGI [42]: > 100 µM
- TGI [43]: > 100 µM
- TGI [44]: > 100 µM
- TGI [45]: 50.9 µM
- TGI [46]: > 100 µM
- TGI [47]: 92.8 µM
- TGI [48]: 53.1 µM
- TGI [49]: > 100 µM
- TGI [50]: 46.6 µM

Compound: CO[C@@H]1C[C@H](OC(N)=O)[C@@H]2C=C[C@@H]3/C=C(C)/C=C/[C@@H](C)[C@H](/C(C)=C/[C@@H](C)NC(C)=O)OC(=O)/C=C/C=C(C)\C=C\[C@]3(C)[C@@H]2C1
- TGI [1]: 0.0455 µM
- TGI [51]: 0.148 µM
- TGI [2]: 13.8 µM
- TGI [3]: 0.223 µM
- TGI [52]: 2.84 µM
- TGI [5]: 0.514 µM
- TGI [6]: 0.111 µM
- TGI [7]: 8.38 µM
- TGI [8]: 2.12 µM
- TGI [9]: 0.613 µM
- TGI [53]: 0.798 µM
- TGI [10]: 1.24 µM
- TGI [54]: 5.11 µM
- TGI [11]: 0.103 µM
- TGI [12]: 0.429 µM
- TGI [13]: 2.98 µM
- TGI [14]: 0.278 µM
- TGI [15]: 0.455 µM
- TGI [16]: 0.167 µM
- TGI [17]: 0.251 µM
- TGI [18]: 0.111 µM
- TGI [19]: 2.74 µM
- TGI [21]: 0.353 µM
- TGI [22]: 1.4 µM
- TGI [24]: 0.163 µM
- TGI [55]: 11.4 µM
- TGI [25]: 0.912 µM
- TGI [26]: 2.69 µM
- TGI [27]: 3.04 µM
- TGI [28]: 0.604 µM
- TGI [29]: 0.375 µM
- TGI [30]: 0.00689 µM
- TGI [31]: 50 µM
- TGI [32]: 2.43 µM
- TGI [56]: 0.664 µM
- TGI [33]: 0.843 µM
- TGI [34]: 0.471 µM
- TGI [35]: 2.12 µM
- TGI [37]: 3.63 µM
- TGI [57]: 12 µM
- TGI [38]: 0.107 µM
- TGI [39]: 7.59 µM
- TGI [40]: 3.11 µM
- TGI [41]: 0.192 µM
- TGI [42]: 10.2 µM
- TGI [43]: 17 µM
- TGI [44]: 0.0866 µM
- TGI [58]: 0.292 µM
- TGI [45]: 0.717 µM
- TGI [46]: 0.458 µM
- TGI [47]: 1.67 µM
- TGI [48]: 0.0826 µM
- TGI [49]: 1.58 µM
- TGI [59]: 0.0867 µM
- TGI [50]: 0.0846 µM

Compound: Cc1c(N2C(=O)/C(=C/c3ccc(N(CCC#N)CCC#N)cc3)N=C2c2ccccc2)c(=O)n(-c2ccccc2)n1C
- TGI [1]: > 100 µM
- TGI [51]: > 100 µM
- TGI [2]: > 100 µM
- TGI [3]: > 100 µM
- TGI [52]: > 100 µM
- TGI [4]: > 100 µM
- TGI [5]: > 100 µM
- TGI [6]: > 100 µM
- TGI [8]: > 100 µM
- TGI [53]: > 100 µM
- TGI [10]: > 100 µM
- TGI [54]: > 100 µM
- TGI [12]: > 100 µM
- TGI [13]: > 100 µM
- TGI [14]: > 100 µM
- TGI [15]: > 100 µM
- TGI [16]: > 100 µM
- TGI [17]: > 100 µM
- TGI [18]: > 100 µM
- TGI [19]: > 100 µM
- TGI [20]: > 100 µM
- TGI [21]: > 100 µM
- TGI [22]: > 100 µM
- TGI [24]: > 100 µM
- TGI [55]: > 100 µM
- TGI [25]: > 100 µM
- TGI [26]: > 100 µM
- TGI [27]: > 100 µM
- TGI [28]: > 100 µM
- TGI [29]: > 100 µM
- TGI [30]: > 100 µM
- TGI [31]: > 100 µM
- TGI [32]: > 100 µM
- TGI [56]: > 100 µM
- TGI [33]: > 100 µM
- TGI [34]: > 100 µM
- TGI [35]: > 100 µM
- TGI [36]: > 100 µM
- TGI [37]: > 100 µM
- TGI [57]: > 100 µM
- TGI [38]: > 100 µM
- TGI [39]: > 100 µM
- TGI [40]: > 100 µM
- TGI [41]: > 100 µM
- TGI [42]: > 100 µM
- TGI [43]: > 100 µM
- TGI [44]: > 100 µM
- TGI [58]: > 100 µM
- TGI [45]: > 100 µM
- TGI [46]: > 100 µM
- TGI [47]: > 100 µM
- TGI [59]: > 100 µM
- TGI [50]: > 100 µM
